Measured values reported in US5932606A, “Pyrazinone, pyridinone, piperidine and pyrrolidine thrombin inhibitors” (Merck & Co., Inc., priority 1998, dated 1999).
Square brackets hold non-standard residues; d marks the D form. Peptide text beside a SMILES is read from it. * marks the point of attachment. AFC = O=c1cc(C(F)(F)F)c2ccc(N*)cc2o1; pNA = O=[N+]([O-])c1ccc(N*)cc1; Cbz = O=C(OCc1ccccc1)*; Sar = CNCC(=O)O

Tests used:
[1] = test system: human a-thrombin; test: In vitro assay for determining proteinase inhibition, thrombin (p-nitroanilide substrate sar-PR-pna, 405 nm); assay type: biochemical; conditions: 25° C., pH 7.4
Procedure: (§1) In Vitro Assay for Determining Proteinase Inhibition
(§2) Assays of human a-thrombin and human trypsin were performed at 25° C. in 0.05 M TRIS buffer pH 7.4, 0.15 M NaCl, 0.1% PEG. Trypsin assays also contained 1 mM CaCl2.
(§3) Activity assays were performed by diluting a stock solution of substrate at least tenfold to a final concentration ≤0.5 Km into a solution containing enzyme or enzyme equilibrated with inhibitor. Times required to achieve equilibration between enzyme and inhibitor were determined in control experiments. Initial velocities of product formation in the absence (Vo) or presence of inhibitor (Vi) were measured. Assuming competitive inhibition, and that unity is negligible compared Km /[S], […] (where [S], [I], and e respectively represent the total concentrations, of substrate, inhibitor and enzyme), the equilibrium constant (Ki) for dissociation of the inhibitor from the enzyme can be obtained from the dependence of Vo /Vi on [I] shown in equation 1.

[2] = test system: human trypsin; test: In vitro assay for determining proteinase inhibition, trypsin (p-nitroanilide substrate sar-PR-pna, 405 nm); assay type: biochemical; conditions: 25° C., pH 7.4, 1 mM CaCl2
Procedure: as §1, §2, §3

[3] = test system: thrombin; test: More sensitive thrombin activity assay with fluorogenic substrate Z-GPR-afc (fluorescence at 500 nm); assay type: biochemical, human; conditions: excitation at 400 nm
Procedure: as §2
In certain studies with potent inhibitors (Ki <10 nM) where the degree of inhibition of thrombin was high, a more sensitive activity assay was employed. […] Concentrations of stock solutions of Z-GPR-afc were determined from measurements of absorbance at 380 nm of the 7-amino-4-trifluoromethyl coumarin produced upon complete hydrolysis of an aliquot of the stock solution by thrombin.
as §3

Km [3] | SMILES | Km [1] | Km [2]
 | CNCC(=O)N1CCC[C@H]1C(=O)N[C@@H](CCCNC(=N)N)C(=O)Nc1ccc([N+](=O)[O-])cc1 [sar-PR-pna, sarcosine-Pro-Arg-p-nitroanilide] (H-[Sar]-Pro-Arg-pNA) | 125 µM | 59 µM
27 µM | N=C(N)NCCC[C@H](NC(=O)[C@@H]1CCCN1C(=O)CNC(=O)OCc1ccccc1)C(=O)Nc1ccc2c(C(F)(F)F)cc(=O)oc2c1 [Z-GPR-afc, Cbz-Gly-Pro-Arg-7-amino-4-trifluoromethylcoumarin] (Cbz-Gly-Pro-Arg-{AFC}) |  | 
